According to publication PMC6407917, “Identification of GSK3186899/DDD853651 as a Preclinical Development Candidate for the Treatment of Visceral Leishmaniasis” (Journal of Medicinal Chemistry, 2018):
pIC50: −log10 of the molar value.

Tests used:
Test in all cases: biochemical
Parameters in all cases: species or system HEK293/K-562/placenta mixed human extract; Kinobeads chemoproteomic competition binding, quantified by TMT LC-MS/MS, dose response up to 20 uM
NEK6 = NEK6 (Homo sapiens, UniProt Q9HC98)
MAST2 = MAST2 (Homo sapiens, UniProt Q6P0Q8)
YWHAZ = YWHAZ (Homo sapiens, UniProt P63104)
MAP3K7 = MAP3K7 (Homo sapiens, UniProt O43318)
STK16 = STK16 (Homo sapiens, UniProt O75716)
CAMK2G = CAMK2G (Homo sapiens, UniProt Q13555)
LRRK2 = LRRK2 (Homo sapiens, UniProt Q5S007)
CDC7 = CDC7 (Homo sapiens, UniProt O00311)
OXSR1 = OXSR1 (Homo sapiens, UniProt O95747)
KIT = KIT (Homo sapiens, UniProt P10721)
DYRK1A = DYRK1A (Homo sapiens, UniProt Q13627)
TNIK = TNIK (Homo sapiens, UniProt Q9UKE5)
FGFR1 = FGFR1 (Homo sapiens, UniProt P11362)
RIPK2 = RIPK2 (Homo sapiens, UniProt O43353)
PLK1 = PLK1 (Homo sapiens, UniProt P53350)
SIK1 = SIK1 (Homo sapiens, UniProt P57059)
DCK = DCK (Homo sapiens, UniProt P27707)
CHUK = CHUK (Homo sapiens, UniProt O15111)
CDC37 = CDC37 (Homo sapiens, UniProt Q16543)
IKBKE = IKBKE (Homo sapiens, UniProt Q14164)
AAK1 = AAK1 (Homo sapiens, UniProt Q2M2I8)

Measured: pIC50

OXSR1, sequence (O95747 whole entry): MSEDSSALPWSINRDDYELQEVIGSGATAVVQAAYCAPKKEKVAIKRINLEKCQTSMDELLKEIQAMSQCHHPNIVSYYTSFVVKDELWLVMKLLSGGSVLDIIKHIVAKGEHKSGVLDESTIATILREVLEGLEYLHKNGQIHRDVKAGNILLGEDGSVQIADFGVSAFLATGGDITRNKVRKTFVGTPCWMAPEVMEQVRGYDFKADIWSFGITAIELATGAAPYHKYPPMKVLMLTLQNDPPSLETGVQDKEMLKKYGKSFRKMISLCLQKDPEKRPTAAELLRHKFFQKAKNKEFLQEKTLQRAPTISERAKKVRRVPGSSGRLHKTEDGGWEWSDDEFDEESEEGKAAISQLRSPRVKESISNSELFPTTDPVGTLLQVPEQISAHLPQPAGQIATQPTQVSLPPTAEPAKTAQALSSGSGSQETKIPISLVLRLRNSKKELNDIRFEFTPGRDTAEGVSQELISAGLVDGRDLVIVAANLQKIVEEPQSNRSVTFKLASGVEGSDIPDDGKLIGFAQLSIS
IKBKE, sequence (Q14164 whole entry): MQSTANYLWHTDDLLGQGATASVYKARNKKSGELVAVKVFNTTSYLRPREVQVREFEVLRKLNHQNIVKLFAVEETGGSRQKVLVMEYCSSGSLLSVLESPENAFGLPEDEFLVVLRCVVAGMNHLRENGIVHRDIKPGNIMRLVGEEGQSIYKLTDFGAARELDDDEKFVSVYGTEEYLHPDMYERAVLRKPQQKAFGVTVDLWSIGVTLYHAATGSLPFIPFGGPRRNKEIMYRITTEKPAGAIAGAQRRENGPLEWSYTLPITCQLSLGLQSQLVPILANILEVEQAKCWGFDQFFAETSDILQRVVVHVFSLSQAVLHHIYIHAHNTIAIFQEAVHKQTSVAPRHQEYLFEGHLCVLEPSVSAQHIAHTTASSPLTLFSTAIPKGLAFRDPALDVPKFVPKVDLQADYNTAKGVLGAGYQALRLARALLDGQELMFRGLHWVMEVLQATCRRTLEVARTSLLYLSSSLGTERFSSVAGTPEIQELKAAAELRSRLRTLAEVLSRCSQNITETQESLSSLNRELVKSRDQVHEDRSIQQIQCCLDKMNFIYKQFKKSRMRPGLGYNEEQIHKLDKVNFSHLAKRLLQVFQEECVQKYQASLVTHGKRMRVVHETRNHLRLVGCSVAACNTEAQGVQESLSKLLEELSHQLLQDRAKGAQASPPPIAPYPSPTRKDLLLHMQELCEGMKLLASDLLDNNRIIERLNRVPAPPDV
LRRK2, sequence (Q5S007 whole entry): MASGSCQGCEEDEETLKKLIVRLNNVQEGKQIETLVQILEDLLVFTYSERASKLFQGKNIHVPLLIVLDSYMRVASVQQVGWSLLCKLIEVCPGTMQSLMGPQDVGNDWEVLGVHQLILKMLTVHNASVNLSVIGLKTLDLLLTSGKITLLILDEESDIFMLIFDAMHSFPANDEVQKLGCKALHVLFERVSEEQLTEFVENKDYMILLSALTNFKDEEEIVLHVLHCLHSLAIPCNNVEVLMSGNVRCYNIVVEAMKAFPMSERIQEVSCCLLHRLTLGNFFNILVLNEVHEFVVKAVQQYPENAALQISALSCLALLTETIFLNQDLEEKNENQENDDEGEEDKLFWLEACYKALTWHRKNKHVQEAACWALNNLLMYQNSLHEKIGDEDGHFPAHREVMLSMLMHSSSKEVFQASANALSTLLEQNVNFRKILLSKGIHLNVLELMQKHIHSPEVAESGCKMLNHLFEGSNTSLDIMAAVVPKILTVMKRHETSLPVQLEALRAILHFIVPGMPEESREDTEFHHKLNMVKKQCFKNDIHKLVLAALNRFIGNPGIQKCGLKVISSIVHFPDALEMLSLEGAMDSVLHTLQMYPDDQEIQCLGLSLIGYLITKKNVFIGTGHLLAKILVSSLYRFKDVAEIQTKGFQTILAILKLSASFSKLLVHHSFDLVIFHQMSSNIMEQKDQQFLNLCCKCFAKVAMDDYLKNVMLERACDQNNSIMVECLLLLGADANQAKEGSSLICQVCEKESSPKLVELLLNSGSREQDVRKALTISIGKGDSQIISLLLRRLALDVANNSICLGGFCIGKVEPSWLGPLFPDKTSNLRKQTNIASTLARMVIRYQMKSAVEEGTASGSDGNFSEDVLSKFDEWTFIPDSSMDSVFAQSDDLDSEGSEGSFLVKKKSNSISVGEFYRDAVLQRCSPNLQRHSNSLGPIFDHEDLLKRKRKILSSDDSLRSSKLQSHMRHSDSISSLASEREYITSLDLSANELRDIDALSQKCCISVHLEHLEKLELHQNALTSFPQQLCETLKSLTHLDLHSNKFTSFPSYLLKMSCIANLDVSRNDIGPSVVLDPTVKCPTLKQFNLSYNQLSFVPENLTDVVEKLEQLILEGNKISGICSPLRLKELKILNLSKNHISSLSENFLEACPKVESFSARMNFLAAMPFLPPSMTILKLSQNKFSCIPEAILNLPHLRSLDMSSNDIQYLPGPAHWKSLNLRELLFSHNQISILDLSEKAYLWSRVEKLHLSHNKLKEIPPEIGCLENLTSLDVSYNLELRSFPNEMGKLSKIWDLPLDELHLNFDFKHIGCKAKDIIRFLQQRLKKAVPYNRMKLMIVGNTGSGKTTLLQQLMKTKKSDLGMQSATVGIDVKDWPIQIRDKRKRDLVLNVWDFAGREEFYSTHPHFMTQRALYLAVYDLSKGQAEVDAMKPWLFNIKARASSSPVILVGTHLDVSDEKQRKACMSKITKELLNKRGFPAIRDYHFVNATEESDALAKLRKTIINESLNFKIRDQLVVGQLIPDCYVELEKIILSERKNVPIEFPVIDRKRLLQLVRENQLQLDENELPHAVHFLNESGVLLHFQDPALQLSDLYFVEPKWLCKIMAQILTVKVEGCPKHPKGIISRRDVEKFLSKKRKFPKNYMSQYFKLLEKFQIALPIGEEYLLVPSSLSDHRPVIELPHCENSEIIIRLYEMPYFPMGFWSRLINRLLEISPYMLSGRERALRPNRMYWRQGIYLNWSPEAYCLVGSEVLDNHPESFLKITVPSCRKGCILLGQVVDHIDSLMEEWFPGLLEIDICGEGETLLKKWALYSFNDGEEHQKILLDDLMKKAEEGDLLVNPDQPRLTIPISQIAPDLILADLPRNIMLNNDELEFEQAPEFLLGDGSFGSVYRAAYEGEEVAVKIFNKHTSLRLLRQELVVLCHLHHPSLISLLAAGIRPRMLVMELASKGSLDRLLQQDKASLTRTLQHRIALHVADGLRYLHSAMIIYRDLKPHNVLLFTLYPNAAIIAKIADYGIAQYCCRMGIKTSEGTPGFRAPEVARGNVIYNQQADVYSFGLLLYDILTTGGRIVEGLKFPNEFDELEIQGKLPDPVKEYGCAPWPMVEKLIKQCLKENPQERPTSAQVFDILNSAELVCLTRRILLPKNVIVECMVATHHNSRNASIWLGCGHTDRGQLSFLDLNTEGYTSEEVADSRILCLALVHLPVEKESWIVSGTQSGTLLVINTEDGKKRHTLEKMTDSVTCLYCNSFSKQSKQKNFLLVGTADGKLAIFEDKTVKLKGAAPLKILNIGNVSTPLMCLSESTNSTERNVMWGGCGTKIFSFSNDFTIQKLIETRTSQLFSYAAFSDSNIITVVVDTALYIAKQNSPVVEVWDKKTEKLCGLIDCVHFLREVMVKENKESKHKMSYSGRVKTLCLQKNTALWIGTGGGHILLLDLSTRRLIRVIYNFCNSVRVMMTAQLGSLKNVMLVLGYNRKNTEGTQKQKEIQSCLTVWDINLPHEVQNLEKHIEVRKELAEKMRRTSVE
CAMK2G, sequence (Q13555 whole entry): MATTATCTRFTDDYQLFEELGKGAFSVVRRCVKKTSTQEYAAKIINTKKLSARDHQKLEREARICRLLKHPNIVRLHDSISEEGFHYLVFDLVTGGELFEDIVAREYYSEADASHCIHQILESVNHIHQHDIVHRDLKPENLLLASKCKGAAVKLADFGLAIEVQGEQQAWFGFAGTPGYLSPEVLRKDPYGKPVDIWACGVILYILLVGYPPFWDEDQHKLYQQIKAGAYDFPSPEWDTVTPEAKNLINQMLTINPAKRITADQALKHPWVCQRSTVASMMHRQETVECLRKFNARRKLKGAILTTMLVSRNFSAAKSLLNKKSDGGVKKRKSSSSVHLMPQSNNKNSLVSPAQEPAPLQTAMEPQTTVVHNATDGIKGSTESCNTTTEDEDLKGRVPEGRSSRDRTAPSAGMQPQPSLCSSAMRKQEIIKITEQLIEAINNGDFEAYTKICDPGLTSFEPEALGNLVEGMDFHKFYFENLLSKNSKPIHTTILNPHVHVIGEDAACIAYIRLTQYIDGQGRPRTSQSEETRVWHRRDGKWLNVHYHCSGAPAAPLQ
PLK1, sequence (P53350 whole entry): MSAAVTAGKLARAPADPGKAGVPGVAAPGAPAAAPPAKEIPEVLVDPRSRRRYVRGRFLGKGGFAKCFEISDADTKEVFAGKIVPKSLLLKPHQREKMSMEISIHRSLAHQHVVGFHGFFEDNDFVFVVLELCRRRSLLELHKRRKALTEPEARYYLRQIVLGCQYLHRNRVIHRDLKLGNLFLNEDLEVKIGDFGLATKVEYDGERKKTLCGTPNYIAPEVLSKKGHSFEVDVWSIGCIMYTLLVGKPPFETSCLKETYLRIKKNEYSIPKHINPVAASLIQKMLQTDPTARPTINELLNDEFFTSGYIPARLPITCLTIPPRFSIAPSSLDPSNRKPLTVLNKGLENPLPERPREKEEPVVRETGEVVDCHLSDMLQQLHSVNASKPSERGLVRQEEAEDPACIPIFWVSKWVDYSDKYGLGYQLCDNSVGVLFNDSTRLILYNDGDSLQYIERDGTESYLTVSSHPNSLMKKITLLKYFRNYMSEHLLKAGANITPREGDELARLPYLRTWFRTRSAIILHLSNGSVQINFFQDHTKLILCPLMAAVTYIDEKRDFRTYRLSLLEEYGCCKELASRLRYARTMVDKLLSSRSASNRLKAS

COc1ccccc1-c1n[nH]c2nc(N[C@H]3CC[C@H](NS(=O)(=O)CCC(F)(F)F)CC3)nc(OC)c12 [compound 31, 3,3,3-Trifluoro-N-(trans-4-((4-methoxy-3-(2-methoxyphenyl)-1H-pyrazolo[3,4-d]pyrimidin-6-yl)amino)cyclohexyl)propane-1-sulfonamide]
≤ 4.70: all assays above
